Measurements reported in ChEMBL document CHEMBL3046239, “Lethal and Antifeedant Substance from Rhizome of Alpinia galanga SW. (Zingiberaceae)” (1998).

Key:
Format in all cases: functional
[1] = system: Plutella xylostella; assay: Antifeedant effect in Plutella xylostella (diamondback moth) in compound treated fresh cabbage leaves assessed as feeding reduction at 66.4 ug/cm'2 by no-choice leaf disk method
[2] = system: Callosobruchus chinensis; assay: Lethal effect on Callosobruchus chinensis assessed as mortality measured per insect after 24 hr treatment by topical application method
[3] = system: Plutella xylostella; assay: Lethal effect on Plutella xylostella (diamondback moth) in fresh cabbage leaves assessed as mortality measured per insect after 48 hr treatment by topical application method
[4] = system: Callosobruchus chinensis; assay: Lethal effect on Callosobruchus chinensis assessed as mortality at 8 ug/insect measured 24 hr after treatment by topical application method
[5] = system: Plutella xylostella; assay: Lethal effect on Plutella xylostella (diamondback moth) in fresh cabbage leaves assessed as mortality at 8 to 10 ug/insect measured 48 hr after treatment by topical application method
[6] = system: Plutella xylostella; assay: Antifeedant effect in Plutella xylostella (diamondback moth) in compound treated fresh cabbage leaves assessed as feeding reduction at 106.2 ug/cm'2 by no-choice leaf disk method
[7] = system: Plutella xylostella; assay: Lethal effect on Plutella xylostella (diamondback moth) in fresh cabbage leaves assessed as mortality at 10 ug/insect measured 24 hr after treatment by topical application method

Compound `C=C[C@H](OC(C)=O)c1ccc(OC(C)=O)cc1` [1'-ACETOXYCHAVICOL ACETATE] has an AFI [1] of 88.5%, an LD50 [2] of 3 µg and an LD50 [3] of 4.5 µg. The mortality [4] was 95%, the mortality [5] was 100% and the AFI [6] was 98.8%. It also gave a mortality [7] of 83.3%.
